Assay results reported in patent US20030208035A1, “Antifungal and/or antibacterial peptides, preparation methods, compositions containing same and methods of treating mammals and/or plants” (priority 2000, published 2003).
Bridges are numbered along the chain shown (N, C = ends). Where no end group is shown, it is not given here.

How the values were obtained:
C. parapsilosis = type: cell-based
Method: (§1) Candida yeasts (C. albicans, C. glabrata, C. dubliensis, C. tropicalis, C. kefyr, C. krusei and C. parapsilosis—donated by Dr. H. Koenig, Hôpital Civil, Strasbourg), fluconazole-resistant C. albicans (n^o245962, n^o2332, n^o246335 and n^o3552, donated by Drs. J.Meis and J. Mouton, University Hospital, Microbiology Department, Nijmegen, Netherlands), and Cryptoccocus neoformans (donated by Dr. H. Koenig, Hôpital Civil, Strasbourg) were seeded on Sabouraud-Cloramphenicol Agar slant gelose (Biomerieux) and left to incubate for 24 h at 30° C. (Candida sp.) and for 72 h at 37° C. (Cryptoccocus neoformans).
(§2) Some yeast colonies were placed in suspension in liquid Sabouraud medium (Biomerieux) to obtain a final concentration of 0.1 OD at 600 nm corresponding to 2.5.10^6 yeasts/ml.
(§3) The yeast suspension was adjusted to 5.10^3 yeast/ml in Sabouraud medium.
(§4) 100 μl of peptide dilutions (concentration of 50 with 0.097 μg/ml peptide) were deposited in microtitration plates. After adding […] of yeast suspension with 5.10^3 yeast/ml i.e. 500 yeasts, the test plates were incubated 24 h at 30° C. (Candida) under slow shaking or 72 h at 37° C. (Cryptoccocus).
(§5) Determination of minimal inhibiting concentrations (MIC) was made by measuring absorbency at 600 nm using a spectrophotometer-microtitration plate reader. The MIC score was set at a growth inhibition rate of 50%.

C. dubliensis = type: cell-based
Method: as §1, §2, §3, §4, §5

Aspergillus fumigatus = assay: anti-Aspergillus fumigatus growth inhibition test in liquid medium (96-well microplates); type: cell-based; conditions: fold relative to Ard1
Method: The anti-Candida albicans and anti-Aspergillus fumigatus activities of the different analogues were assessed using a growth inhibition test in liquid medium made in 96-well microplates. The activity of the purified peptides was tested for different dilutions of each peptide and was compared with those of heliomycin and Ard1 quantified under the same conditions.
The spores of Aspergillus fumigatus were derived from a stock frozen at −80° C., containing 10^7 spores/ml in a 25% glycerol solution. After slow thawing at room temperature, the spores were placed in suspension in PDB culture medium (12 g Potato Dextrose Broth medium, per […] water). 10 μl of each sample were deposited in the wells of microtitration plates in the presence of 90 μl PDB culture medium supplemented with tetracycline (100 μg/ml) and cefotaxime (1 μg/ml) containing the spores (at a final concentration of 1000 spores/well). Control cultures were systematically made in which 10 μl of sample were replaced by 10 μl of sterile water. Media sterility was controlled by incubating 10 μl sterile water in the presence of 90 μl of medium. The samples were incubated at 37° C. for 24 h to 48 h in a humid atmosphere, and the antifungal activity was quantified by a score of 0 to 9 taking germination account; the size and morphology of the hyphs were determined under the binocular microscope. […].

A. flavus = type: cell-based
Method: (§6) The antifungal activity was detected by a growth inhibition test in a liquid medium.
(§7) The filamentous fungi (A. fumigatus, A. flavus and A. terreus, donated by Dr. H. Koenig, Hôpital Civil, Strasbourg; and S. prolificans and F. solani donated by Drs. J. Meis and J. Mouton, University hospital, Microbioolgy Department, Nijmegen, Netherlands) were seeded on Malt-Agar slant gelose (Biomerieux) and incubated 7 days at 37° C.
(§8) The spores were then collected with 10 ml YPG medium containing 0.05% Tween 20 and filtered through a gauze. The spores were centrifuged 10 min at 1700 rpm, the residue was collected in YPG (1 g Yeast extract, 1 g Peptone, 3 g Glucose per 1 l).
(§9) The suspension was counted with a Coverslide and adjusted to 10^4 spores/ml.
(§10) 100 μl of peptide dilutions (concentration of 50 with 0.097 μg/ml peptide) were deposited in microtitration plates. 100 μl with 10^4 spores/ml of filamentous fungi, i.e. 1000 spores, were then added.
(§11) The test plates were incubated 48 h at 37° C.
(§12) Determination of minimum inhibiting concentrations (MIC) was made by observing well cover rate. The MIC score was set at 50% well covering.

[1] = test system: Scedosporium inflatum (FSSP 7908 strain); assay: Scedosporium inflatum infected model (invasive scedosporiosis), continuous infusion by osmotic pumps; type: in vivo, mice; conditions: for 50% mortality, post-infection day: controls day 7
Method: Swiss OF1 mice weighing 22 g were infected by intravenous route (i.v.) with a lethal dose of Scedosporium inflatum (FSSP 7908 strain cultured on Malt Agar gelose for 7 days at 37° C.). The infecting dose was 7.10^6 spores per mouse, injected in a volume of 100 μl via the lateral tail vein.
Peptides pEM35 and pEM51 were administered continuously using ALZET 1003D osmotic pumps (flow rate: 0.97 μl/h; volume: 93 μl; infusion time: 4 days) and 1007D pumps (flow rate: 0.47 μl/h; volume: 100 μl; infusion time: 8 and half days) with intraperitoneal insertion
Groups of 8 infected mice were treated either with:
c) with pEM51 delivered i.p. by 1007D pumps at a dose of 30 mg/kg for 8 days, corresponding to a theoretical equilibrium plasma concentration of 0.3 μg/ml;
d) with pEM51 delivered i.p. by 1003D pumps at a dose of 60 mg/kg for 4 days, corresponding to a theoretical equilibrium plasma concentration of 0.6 μg/ml;
e) with pEM35 delivered i.p. by 1003D pumps at a dose of 35 mg/kg for 4 days, corresponding to a theoretical equilibrium plasma concentration of 0.35 μg/ml.
In this model of invasive scedosporiosis, inoculation of a dose of 7.10^6 spores of Scedosporium inflatum was 50% lethal on post-infection day 7. The first death occurred at 5 days and 6 days respectively after infection for the control mice group (infected, non-treated) and the placebo group (infected and with Alzet pumps). 100% mortality was observed on day 11 in the control group and 75% mortality on day 20 for the placebo group. The state of health of the mice deteriorated rapidly on and after post-infection day 3 with a morbidity score for these two groups of 28/40 and 34/40 on day 3 and 6/40 and 7/40 on post-infection day 7. Signs of encephalitis occurred on post-infection day 4.

[2] = Acute toxicity study in mice; type: in vivo; conditions: for acute toxicity: mice, intravenous, in 0.9% NaCl, injections of 30 mg/kg repeated at 30-minute intervals, 3 times daily for 3 days
Method: […] The peptides were solubilised in a 0.9% NaCl solution; the injected volume was 150 μl injected in 45 seconds via the lateral tail vein.

A. terreus = type: cell-based
Method: as §6, §7, §8, §9, §10, §11, §12

Sequence | MIC (C. parapsilosis) | MIC (C. dubliensis) | Activity A.f. (relative activity in relation to Ard1) (Aspergillus fumigatus) | MIC (A. flavus) | acute toxicity [2] | delayed growth (weight) on the day after the injection ([2]; single i.v. dose 200 mg/kg) | delayed growth (weight) on the day after the injection ([2]; single i.v. dose 400 mg/kg) | MIC (A. terreus) | further results
DKLIGSCVWGAVNYTSNCNAECKRRGYKGGHCGSFANVNCWCQT (disulfide 7-32, 18-40, 22-42 (inferred)) [pEM31] | 1.56 µg/mL | 6.25 µg/mL | 4-8 | >25 µg/mL |  |  |  |  | 
DKLIGSCVWGAVNYTSNCNAECKRRGYKGGHCGSFLNVNCWCET (disulfide 7-32, 18-40, 22-42 (inferred)) [pEM35] |  |  | 2-4 | 3.125 µg/mL | no acute toxicity was observed | approximately 1 g | approximately 1 g | 6.25 µg/mL | delay of onset of the first death ([1]; 35 mg/kg for 4 days i.p. by 1003D pumps): 5 days; delay of 50% mortality relative to control and placebo groups ([1]; 35 mg/kg for 4 days i.p. pumps): 8 days; mice alive on day 20 (out of 8) ([1]; 35 mg/kg for 4 days i.p. pumps): 1 mouse; morbidity score post-infection day 5 ([1]; 35 mg/kg for 4 days i.p. pumps): 28/40; morbidity score post-infection day 15 ([1]; 35 mg/kg for 4 days i.p. pumps): 8/40; 50% mortality, post-infection day ([1]; 35 mg/kg for 4 days i.p. pumps): 15 days
DKLIGSCVWGAVNYTSNCNAECKRRGYKGGHCGSFLNVNCWCQT (disulfide 7-32, 18-40, 22-42 (inferred)) [pEM46] | 0.78 µg/mL | 3.125 µg/mL | 6-8 |  |  |  |  | 6.25 µg/mL | 
DKLIGSCVWGAVNYTSNCRAECKRRGYKGGHCGSFANVNCWCET (disulfide 7-32, 18-40, 22-42 (inferred)) [pEM51] |  |  | 1 | 6.25 µg/mL | no acute toxicity was observed | approximately 1 g | approximately 2 g | 3.125 µg/mL | therapeutic efficacy in terms of survival ([1]; 30 mg/kg for 8 days): very good therapeutic efficacy; delay of onset of the first death ([1]; 30 mg/kg for 8 days i.p. by 1007D pumps, 7.10^6 spores i.v., 8 mice): 9 days; mice alive on day 20 (out of 8) ([1]; 30 mg/kg for 8 days i.p. pumps): 5 mice; morbidity score post-infection day 5 until day 14 ([1]; 30 mg/kg for 8 days i.p. pumps): 24/40; morbidity score post-infection day 20 ([1]; 30 mg/kg for 8 days i.p. pumps): 11/40; morbidity score post-infection day 4 ([1]; 30 mg/kg for 8 days i.p. pumps, 40 = all 8 mice healthy): 28/40; delay of onset of the first death ([1]; 60 mg/kg for 4 days i.p. by 1003D pumps): 4 days; delay of 50% mortality in relation to control and placebo groups ([1]; 60 mg/kg for 4 days i.p. pumps): 5 days; mice alive on day 20 (out of 8) ([1]; 60 mg/kg for 4 days i.p. pumps): 3 mice; morbidity score post-infection day 5 ([1]; 60 mg/kg for 4 days i.p. pumps): 30/40; morbidity score post-infection day 14 ([1]; 60 mg/kg for 4 days i.p. pumps): 6/40; 50% mortality, post-infection day ([1]; 60 mg/kg for 4 days i.p. pumps): 12 days; delayed growth (weight) on the day after the injection ([2]; single i.v. dose 300 mg/kg): approximately 1 g
